For this experiment, the system named is CD19+ B cells. The experiment in a line: RGD blocking of B cells with Cilengitide. In kind it is cell-based, C57BL6 mice. Conditions: 10 or 50 μM Cilengitide, 2 days, 3D organoids; αvβ3 and αvβ5 integrin binding to RGD. The procedure: Immune organoids were incubated in rinsed and incubated in FACS buffer containing fluorescence-conjugated antibodies and/or live cell stains for 12 hours at cell culture conditions. The samples underwent three rinsing rounds with each one involving aspiration of old medium and incubation in fresh FACS buffer for 1 hour. Each organoid was covered with 1×PBS during imaging with Zeiss 710 confocal microscope (Zeiss). In all flow cytometry experiments we started with same number of naïve B cells, i.e. 20,000 B cells. At each time point, samples were degraded using collagenase and the entire cell suspension (regardless of final cell numbers) was re-suspended in equal volume for all samples and equally divided into 3 separate staining groups for flow cytometry analysis (to stain for CD19, GL7, Fas, IgM, IgG1, and IgE). The entire volume was analyzed for total number of cells. Extracted cells were stained by incubation in FACS buffer containing various combinations of antibodies with 1:1000 dilution for 45 minutes in the dark at 4° C. The antibodies consisted of: FITC-, APC, or PE-Cy7-conjugated anti-mouse CD19, GL7, Fas, CD40L, IgG, and IgM (eBioscience). FACS buffer was prepared using 1×PBS++ with 10% FBS. The cell suspension was rinsed twice using the same buffer prior to low cytometer using BD Accuri™ C6 flow cytometer. Data analysis was performed using FlowJo (Tree Star). […]

This is an account of results in patent publication US10317395B1, “Ex vivo engineered immune organoids for controlled germinal center reactions” (Cornell University, priority 2015, dated 2019).

Entries after “also recorded” stand apart in the source; their conditions may differ.

With `CC(C)[C@H]1C(=O)N[C@@H](CCCN=C(N)N)C(=O)NCC(=O)N[C@@H](CC(=O)O)C(=O)N[C@H](Cc2ccccc2)C(=O)N1C` [Cilengitide], the “change in CD19+ B cells when RGD signaling is blocked” value is reported as “partial reduction; also recorded: partial but significant decrease”.
